We go through four compounds from paper PMC10031046, “Competition between FLS and DFR regulates the distribution of flavonols and proanthocyanidins in Rubus chingii Hu” (Frontiers in Plant Science, 2023).

The term Km denotes the substrate concentration at which the rate is half of its maximum.

For assay [1], the system named is T1, RcDFR.
T1 construct: gene DFR; N-terminal MBP fusion (pMAL-c2X), E. coli BL21(DE3), amylose resin
In words: anthocyanidin formation after butanol-HCl, A530, Michaelis-Menten fit. The assay is classed as biochemical, Rubus chingii. Conditions: 1 mM NADPH, 0.1 M PBS pH 7.0, 30 °C, 1 h; kcat unit is 10^-3 s^-1. From the text:
anthocyanidin formation after butanol-HCl, A530, Michaelis-Menten fit on RcDFR

The subject of assay [2] is T2, RcFLS1.
T2 construct: gene FLS1; N-terminal MBP fusion (pMAL-c2X), E. coli BL21(DE3), amylose resin
In words: HPLC product assay, Michaelis-Menten fit. The format is biochemical, Rubus chingii. As to conditions: 100 mM Tris-HCl pH 7.5, 10 mM ascorbate, 10 μM FeSO4, 10 mM 2-oxoglutarate, catalase, 30 °C; kcat unit is 10^-3 s^-1. From the text:
HPLC product assay, Michaelis-Menten fit on RcFLS1

On to `O=C1c2c(O)cc(O)cc2O[C@H](c2ccc(O)c(O)c2)[C@H]1O` [DHQ, Dihydroquercetin], for which the Km in assay [1] stood at 125 ± 11.4 µM; in assay [2], 56.9 ± 16.4 µM.
With `O=C1C[C@@H](c2ccc(O)c(O)c2)Oc2cc(O)cc(O)c21` [E, Eriodictyol], in assay [2], the Km turned out to be 34.5 ± 9.34 µM.
`O=C1c2c(O)cc(O)cc2O[C@H](c2ccc(O)cc2)[C@H]1O` [DHK, Dihydrokaempferol]: the results for the Km in assay [1] and in assay [2] were 47.2 ± 5.79 µM and 33.9 ± 8.66 µM, respectively.
Take `O=C1C[C@@H](c2ccc(O)cc2)Oc2cc(O)cc(O)c21` [N, Naringenin]: in assay [2], the Km amounted to 43.6 ± 14.6 µM.
